In US11247970B2, “Selective inhibition of gluconeogenic activity” (Dana-Farber Cancer Institute, Inc., priority 2017, dated 2022):
“Also recorded” adds a separate entry of the source.

How the values were obtained:
HFD fed mice = assay: Chronic 14 day treatment of HFD mice; assay type: in vivo
Procedure: FIG. 57 is a plot monitoring body weight over a period of days. Mice fed HFD for 6 weeks were injected daily with SR-18292 for a total of 14 days and body weight was monitored during the treatment.
FIG. 58 is a series of bar graphs monitoring blood glucose. Mice were fasted at day 3 and 13 and fasting blood glucose was measured at day 4 and 14. Fed blood glucose was also measured at day 10. n=10, *P<0.05.
In addition, liver toxicity, as measured by serum levels of alanine transaminase (ALT), aspartate aminotransferase (AST), lactate dehydrogenase (LDH) and bilirubin, was not observed in mice treated with SR-18292 (Table 6). […] To assess the contribution of PGC-1α in mediating the in vivo effects of SR-18292, hepatic PGC-1α in Lep^ob/ob mice was depleted using shRNA and observed a significant reduction in basal blood glucose concentrations compared to control. […] To fully assess the effects of SR-18292 on whole body glucose homeostasis and insulin resistance, a glucose tolerance test (GTT) and insulin tolerance test (ITT) were performed following the same protocol used to determine fasting blood glucose. […] As expected, insulin levels after GTT were lower in the treated group (FIG. 51). […] To test if SR-18292 chronic treatment will cause similar anti-diabetic effects, mice were treated for a period of 14 days.

[1] = Fasting insulin and liver pAkt in treated mice; assay type: in vivo
Procedure: (§1) Serum samples were gathered from blood collected by cardiac puncture. Insulin was measured with Ultra Sensitive Mouse Insulin ELISA Kit (Crystal Chem, 90080). Kits used to measure alanine transaminase (EALT-100), aspartate transaminase (EASTR-100), lactate dehydrogenase (DLDH-100) were purchased from Bioassay Systems. Kits used to measure lactate (MAK 064), b-hydroxybutyrate (MAK 041), Triglycerides (TR0100) were purchased from Sigma. Kit used to measure cholesterol (C7510) was purchased from Pointe Scientific. Kit used to measure non-esterified fatty acids was purchased from Wako.

HFD-fed mice = assay: Hyperinsulinemic-euglycemic clamp; assay type: in vivo
Procedure: Hyperinsulinemic-euglycemic clamps were performed on mice fed HFD for 16 weeks as previously described with minor modifications (Jurczak et al., 2012). Briefly, an indwelling catheter was surgically implanted in the right jugular vein 7 days prior to study. Three days before study, mice were injected with SR-18292 and vehicle control following the same protocol described above. Mice were fasted overnight prior to clamps and then infused with a fixed amount of insulin [4 mU/(kg-min)] and a variable amount of 20% dextrose to maintain euglycemia. [3-H]glucose was included in the infusate to allow for the calculation of whole-body rates of glucose metabolism.

[2] = tested on: CREB, TORC2, Akt phosphorylation; assay: Western blot of glucagon and insulin signaling in hepatocytes; assay type: cell-based, mouse
Procedure: For measurement of acetylation, gene expression and glucose production SR-18292 ([…]) was added to cells overnight and fresh compound was added the following day for additional 3 h before collecting the cells (for total of ˜18 h treatment). Where insulin and glucagon stimulation were performed, the medium was changed to starvation medium (DMEM, 0.2% BSA, 2 mM sodium pyruvate, and 1% penicillin/streptomycin) with fresh compound for the last 3 h and cells were stimulated with either 100 nM insulin or 200 nM glucagon for an extra 1.5 h. For glucose measurements following PGC-1α over expression cells were incubated for the last 3 h in glucose-free medium (phenol-red/glucose free DMEM, 0.2% BSA, 2 mM sodium pyruvate and 20 mM sodium lactate or 10 mM glycerol in case glycerol was used as substrate). For glucose measurements following glucagon stimulation cells were incubated for the last 4 h in the same glucose-free medium that also contained glucagon (200 nM). The glucose level in the medium was measured using a glucose assay kit from Eton Bioscience Inc. by adding […] of assay buffer to […] of medium followed by 15 min incubation at 37° C. Absorbance was measured at 490 nm.

[3] = Liver and serum lipids, metabolites and liver gene expression in treated HFD mice; assay type: in vivo
Procedure: Total RNA was extracted from cells or pulverized liver using TRIzol reagent (Ambion, Life Technologies), followed by cDNA preparation from 2 μg of total RNA with a High-Capacity cDNA Reverse Transcription Kit (Applied Biosystems). cDNA products were quantified by real-time PCR using Power SYBR Green PCR Master Mix (Applied Biosystems) on a CFX384 Real-Time PCR System (Bio-Rad). To calculate IC50 from C-80 dose response, curves were fit to the hill equation in a similar manner used to calculate estimated AC50 from the high-throughput qPCR screen. However, unlike the curves from the qPCR high-throughput screen, values of relative repression were used rather than of delta-Ct.
as §1

Q: For Cc1ccc(CN(CC(O)COc2cccc3[nH]ccc23)C(C)(C)C)cc1 (stereo not drawn) [SR-18292, 1-((1H-indol-4-yl)oxy)-3-(tert-butyl(4-methylbenzyl)amino)propan-2-ol], which “ability to reduce blood glucose” value (HFD fed mice; 14 days daily treatment) is on record?
A: sustained

Q: And the body weight (HFD fed mice; 14 days daily treatment)?
A: without resulting in changes in body weight

Q: What about the “toxicity by serum ALT and AST, H&E staining of liver, proinflammatory genes” value (HFD fed mice; 14 days treatment) of the same molecule?
A: did not cause any signs of toxicity

Q: And the “H&E staining of liver slices assessed by pathologist” value (HFD fed mice; after 14 days, n=10)?
A: no sign of toxicity was observed

Q: And the “liver triglycerides and cholesterol levels” value (HFD fed mice; after 14 days, n=10)?
A: not altered

Q: What about the “serum ALT and AST levels” value (HFD fed mice; after 14 days, n=10) of the same molecule?
A: not altered

Q: What about the “serum lactate, β-hydroxybutyrate and cholesterol levels” value (HFD fed mice; after 14 days, n=10) of the same molecule?
A: not altered

Q: What about the “basal (fasting) blood insulin levels” value ([1]; HFD 13 weeks) of the same molecule?
A: not significantly changed

Q: What about the “phosphorylation of Akt in liver” value ([1]; fasted mice) of the same molecule?
A: not changed

Q: What about the “glucose infusion rate vs vehicle” value (HFD-fed mice; HFD 16 weeks) of the same molecule?
A: substantially higher

Q: And the peripheral glucose uptake (HFD-fed mice; HFD 16 weeks)?
A: not due to improved peripheral glucose uptake

Q: What about the endogenous glucose production (HFD-fed mice; basal and clamp conditions) of the same molecule?
A: reduced endogenous glucose production

Q: And the “glucagon-induced phosphorylation of CREB and dephosphorylation of CRTC2” value ([2]; glucagon 200 nM)?
A: without disrupting

Q: And the “cell autonomous enhancement of insulin signaling (Akt S473)” value ([2]; insulin 100 nM)?
A: not observed

Q: What about the “serum lactate and ketone bodies (β-hydroxybutyrate)” value ([3]; HFD 4 weeks) of the same molecule?
A: not changed; also recorded: not altered

Q: And the “serum levels of TG, free fatty acids and cholesterol” value ([3]; HFD 13 weeks)?
A: not significantly altered

Q: And the “transcriptional lipid metabolic profile in liver” value ([3]; HFD 13 weeks)?
A: not significantly altered; also recorded: not changed

Q: And the “liver TG and cholesterol levels” value ([3]; HFD 17 weeks, also after prolonged treatment)?
A: not changed
